Assay results taken from ChEMBL document CHEMBL4725376, “Identification of the first noncompetitive SARM1 inhibitors” (Bioorg Med Chem, 2020).
pIC50, pKi: −log10 of the molar value. Where a name gives a salt, the structure may show the parent alone.

Columns and labels:
Assay type in all cases: subcellular
[1] = biological target: T1, NAD(+) hydrolase SARM1 (Homo sapiens) (UniProt Q6SZW1); assay: Inhibition of recombinant human SARM1 TIR domain (561 to 724 residues) expressed in Escherichia coli C43 (DE3) cells lysates using ENAD as substrate at 25 uM preincubated for 20 mins followed by ENAD addition and measured after 1 hr relative to control
T1 sequence (whole entry): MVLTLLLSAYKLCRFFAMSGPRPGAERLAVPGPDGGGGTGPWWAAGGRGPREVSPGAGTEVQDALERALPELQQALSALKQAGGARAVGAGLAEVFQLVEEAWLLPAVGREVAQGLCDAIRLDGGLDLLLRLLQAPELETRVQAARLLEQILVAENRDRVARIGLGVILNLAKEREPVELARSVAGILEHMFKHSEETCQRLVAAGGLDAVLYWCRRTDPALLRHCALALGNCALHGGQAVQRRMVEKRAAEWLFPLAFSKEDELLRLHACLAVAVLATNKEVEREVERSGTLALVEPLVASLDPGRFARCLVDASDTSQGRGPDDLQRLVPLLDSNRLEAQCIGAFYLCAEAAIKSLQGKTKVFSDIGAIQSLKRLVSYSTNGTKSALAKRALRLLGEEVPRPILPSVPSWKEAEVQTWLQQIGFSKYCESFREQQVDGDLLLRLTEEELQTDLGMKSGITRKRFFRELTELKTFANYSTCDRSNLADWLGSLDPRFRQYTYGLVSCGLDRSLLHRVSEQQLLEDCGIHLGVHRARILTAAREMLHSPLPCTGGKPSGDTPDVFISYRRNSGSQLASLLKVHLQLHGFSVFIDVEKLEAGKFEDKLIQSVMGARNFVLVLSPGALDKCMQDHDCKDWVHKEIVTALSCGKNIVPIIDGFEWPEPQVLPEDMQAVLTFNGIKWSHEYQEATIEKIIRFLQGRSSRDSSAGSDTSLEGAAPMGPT

NAD(+) hydrolase SARM1 [2] = biological target: T2, NAD(+) hydrolase SARM1 (Homo sapiens, UniProt Q6SZW1); assay: Inhibition of recombinant human SARM1 TIR domain (561 to 724 residues) expressed in Escherichia coli C43 (DE3) cells lysates using ENAD as substrate preincubated for 20 mins followed by ENAD addition and measured at 15 sec interval for 15 mins
T2 sequence (Q6SZW1 whole entry): T1 sequence (whole entry)

NAD(+) hydrolase SARM1 [3] = biological target: T2, NAD(+) hydrolase SARM1; assay: Noncompetitive inhibition of recombinant human SARM1 TIR domain (561 to 724 residues) expressed in Escherichia coli C43 (DE3) cells lysates assessed as EADPR formation using ENAD as substrate preincubated for 20 mins followed by ENAD addition and measured at 15 sec interval for 1 hr
NAD(+) hydrolase SARM1 [4] = biological target: T2, NAD(+) hydrolase SARM1; assay: Competitive inhibition of recombinant human SARM1 TIR domain (561 to 724 residues) expressed in Escherichia coli C43 (DE3) cells lysates assessed as EADPR formation using ENAD as substrate preincubated for 20 mins followed by ENAD addition and measured at 15 sec interval for 1 hr

| Structure (SMILES) | inhibition [1] [%] | pIC50 (NAD(+) hydrolase SARM1 [2]) | pKi (NAD(+) hydrolase SARM1 [3]) | pKi (NAD(+) hydrolase SARM1 [4]) |
| --- | --- | --- | --- | --- |
| C[C@H]1c2cccc(O)c2C(=O)C2=C(O)[C@]3(O)C(=O)C(C(N)=O)=C(O)[C@@H](N(C)C)[C@@H]3[C@@H](O)[C@@H]21 | 26 |  |  |  |
| NC(=O)N/N=C/c1ccc([N+](=O)[O-])o1 [NITROFURAZONE] | 27 | 4.05 | 3.92 |  |
| Nc1ccc(/N=N/c2ccccc2)c(N)n1 [PHENAZOPYRIDINE HYDROCHLORIDE] | 44 |  |  | 4.15 |
